The values below come from ChEMBL document CHEMBL6177921, “Enhancing the antimycobacterial efficacy of pyridine-4-carbohydrazide: linkage to additional antimicrobial agents via oxocarboxylic acids” (RSC Med Chem, 2025).

What all share (format): functional
Experiment [1] has as its system Mycobacterium tuberculosis. Put plainly: Antimycobacterial activity against STM/INH/EMB/RIF/OFX/CLO resistant Mycobacterium tuberculosis clinical isolate 8666/2010 strain assessed as bacterial growth inhibition incubated for 14 days by two-fold serial dilution method. Particulars: 8666/2010, 336 h, time 14 day.
The test system of experiment [2] is Mycobacterium tuberculosis. Kind of experiment: Antimycobacterial activity against STM/INH/EMB/RIF/OFX resistant Mycobacterium tuberculosis clinical isolate 7357/1998 strain assessed as bacterial growth inhibition incubated for 14 days by two-fold serial dilution method. The following applies: 7357/1998, 336 h, time 14 day.
The test system of experiment [3] is Mycobacterium tuberculosis. Kind of experiment: Antimycobacterial activity against STM/INH/EMB/RIF/OFX/CLO resistant Mycobacterium tuberculosis clinical isolate 8666/2010 strain assessed as bacterial growth inhibition incubated for 21 days by two-fold serial dilution method. Particulars: 8666/2010, 504 h, time 21 day.
Experiment [4] has as its system Mycobacterium tuberculosis. Put plainly: Antimycobacterial activity against TM/INH/EMB/RIF/OFX/GEN/AMK-resistant Mycobacterium tuberculosis clinical isolate Praha 131 assessed as bacterial growth inhibition incubated for 21 days by two-fold serial dilution method. The following applies: Praha 131, 504 h, time 21 day.
Experiment [5] concerns Mycobacterium tuberculosis. Kind of experiment: Antimycobacterial activity against STM/INH/EMB/RIF/OFX/CLO resistant Mycobacterium tuberculosis clinical isolate Praha 4 assessed as bacterial growth inhibition incubated for 14 days by two-fold serial dilution method. The following applies: Praha 4, 336 h, time 14 day.
Experiment [6] concerns Mycobacterium tuberculosis. Kind of experiment: Antimycobacterial activity against STM/INH/EMB/RIF/CLO-resistant Mycobacterium tuberculosis clinical isolate Praha 1 assessed as bacterial growth inhibition incubated for 14 days by two-fold serial dilution method. The following applies: Praha 1, 336 h, time 14 day.
For experiment [7], the system named is Mycobacterium tuberculosis. Kind of experiment: Antimycobacterial activity against STM/INH/EMB/RIF resistant Mycobacterium tuberculosis clinical isolate 234/2005 strain assessed as bacterial growth inhibition incubated for 21 days by two-fold serial dilution method. Particulars: 234/2005, 504 h, time 21 day.
Experiment [8] concerns Mycobacterium tuberculosis. Put plainly: Antimycobacterial activity against STM/INH/EMB/RIF/OFX resistant Mycobacterium tuberculosis clinical isolate 7357/1998 strain assessed as bacterial growth inhibition incubated for 21 days by two-fold serial dilution method. Particulars: 7357/1998, 504 h, time 21 day.
Experiment [9] concerns Mycobacterium tuberculosis. Put plainly: Antimycobacterial activity against STM/INH/RIF resistant Mycobacterium tuberculosis clinical isolate 9449/2007 strain assessed as bacterial growth inhibition incubated for 21 days by two-fold serial dilution method. Particulars: 9449/2007, 504 h, time 21 day.
The test system of experiment [10] is Mycobacterium tuberculosis. Put plainly: Antimycobacterial activity against STM/INH/EMB/RIF resistant Mycobacterium tuberculosis clinical isolate 234/2005 assessed as bacterial growth inhibition incubated for 14 days by two-fold serial dilution method. Particulars: 234/2005, 336 h, time 14 day.
Experiment [11] deals with Mycobacterium tuberculosis. Put plainly: Antimycobacterial activity against STM/INH/EMB/RIF/OFX/GEN/AMK-resistant Mycobacterium tuberculosis clinical isolate Praha 131 assessed as bacterial growth inhibition incubated for 14 days by two-fold serial dilution method. Particulars: Praha 131, 336 h, time 14 day.
The subject of experiment [12] is Mycobacterium tuberculosis. Kind of experiment: Antimycobacterial activity against STM/INH/EMB/RIF/OFX/CLO-resistant Mycobacterium tuberculosis clinical isolate Praha 4 assessed as bacterial growth inhibition incubated for 21 days by two-fold serial dilution method. Particulars: Praha 4, 504 h, time 21 day.
Experiment [13] concerns Mycobacterium tuberculosis. Kind of experiment: Antimycobacterial activity against STM/INH/EMB/RIF/CLO-resistant Mycobacterium tuberculosis clinical isolate Praha 1 assessed as bacterial growth inhibition incubated for 21 days by two-fold serial dilution method. The following applies: Praha 1, 504 h, time 21 day.
Experiment [14] concerns Mycobacterium tuberculosis. Kind of experiment: Antimycobacterial activity against STM/INH/RIF resistant Mycobacterium tuberculosis clinical isolate 9449/2007 strain assessed as bacterial growth inhibition incubated for 14 days by two-fold serial dilution method. The following applies: 9449/2007, 336 h, time 14 day.

Structures are written as SMILES. Converted amounts (≈) assume the structure as drawn. Where only a bound is given, the exact number is not on record here.

As a reminder, the MIC is the lowest concentration that inhibits growth of the organism. `CNC(C)[C@@H]1CC[C@@H](N)[C@@H](O[C@H]2[C@H](O)[C@@H](O[C@H]3OC[C@](C)(O)[C@H](NC)[C@H]3O)[C@H](N)C[C@@H]2N)O1.CN[C@@H]1[C@@H](O)[C@@H](O[C@@H]2[C@@H](O)[C@H](O[C@H]3O[C@H](C(C)N)CC[C@H]3N)[C@@H](N)C[C@H]2N)OC[C@]1(C)O.CN[C@@H]1[C@@H](O)[C@@H](O[C@@H]2[C@@H](O)[C@H](O[C@H]3O[C@H](CN)CC[C@H]3N)[C@@H](N)C[C@H]2N)OC[C@]1(C)O` (stereo partly drawn): the MIC in experiment [1] is 4 µM; in experiment [2], 1 µM; in [3] it was 4 µM; in experiment [4], greater than 17 µM; in [5], 0.5 µM; in experiment [6], 1 µM. Further, the minimal inhibitory concentration (MIC) is 0.26 µM in [7]; 1 µM in [8]; 1 µM in experiment [9]; 0.26 µM in [10]; greater than 17 µM in experiment [11]; 0.5 µM in experiment [12]. The MIC in experiment [13] and in experiment [14] was 1 µM throughout.
For the molecule `CC1COc2c(N3CCN(C)CC3)c(F)cc3c(=O)c(C(=O)O)cn1c23` (stereo not drawn) [OFLOXACIN], the MIC is 11 µM (≈ 3.98 µg/mL) in [1]; 11 µM (≈ 3.98 µg/mL) in [2]; 11 µM (≈ 3.98 µg/mL) in [3]; greater than 17 µM in experiment [4]; greater than 22 µM in [5]; 1.4 µM (≈ 0.506 µg/mL) in experiment [6]. In addition, the minimal inhibitory concentration (MIC) in experiment [7] is 0.7 µM (≈ 0.253 µg/mL); in [8], 11 µM (≈ 3.98 µg/mL); in experiment [9] it was 2.8 µM (≈ 1.01 µg/mL); in experiment [10] it was 0.7 µM (≈ 0.253 µg/mL); in experiment [11] it was 22 µM (≈ 7.95 µg/mL); in [12], greater than 22 µM. In addition, the MIC in experiment [13] amounted to 1.4 µM (≈ 0.506 µg/mL); in experiment [14], 2.8 µM (≈ 1.01 µg/mL).
`C/C(=N\NC(=O)c1ccncc1)C(=O)Nc1ccc(Oc2ccccc2)cc1`: the MIC in [1], in experiment [2], in experiment [3], in experiment [4], in [5] and in experiment [6] was 16 µM (≈ 5.99 µg/mL) in each case. Also, the MIC in experiment [7] came to 16 µM (≈ 5.99 µg/mL); in [8] it was 16 µM (≈ 5.99 µg/mL); in experiment [9], 16 µM (≈ 5.99 µg/mL); in experiment [10] it was 8 µM (≈ 3 µg/mL); in experiment [11], 16 µM (≈ 5.99 µg/mL); in [12] it was 16 µM (≈ 5.99 µg/mL). In addition, the minimum inhibitory concentration (MIC) in experiment [13] and in experiment [14] was 16 µM (≈ 5.99 µg/mL) each time.
Turning to `C/C(=N\NC(=O)c1ccncc1)C(=O)Nc1ccc(Sc2ccc([N+](=O)[O-])cc2)cc1`, the minimal inhibitory concentration (MIC) in [1], in experiment [3], in [4], in [9], in [11] and in [14] was no less than 250 µM throughout.
As to `C/C(=N\NC(=O)c1ccncc1)C(=O)Nc1ccc(-c2ccccc2)cc1`, the MIC in [1] was 64 µM (≈ 22.9 µg/mL); in [2], 64 µM (≈ 22.9 µg/mL); in experiment [3] it was 64 µM (≈ 22.9 µg/mL); in experiment [4] it was 64 µM (≈ 22.9 µg/mL); in experiment [5], 64 µM (≈ 22.9 µg/mL); in [6], 32 µM (≈ 11.5 µg/mL). For the same molecule, the MIC in experiment [7] came out at 125 µM (≈ 44.8 µg/mL); in experiment [8], 125 µM (≈ 44.8 µg/mL); in experiment [9], 64 µM (≈ 22.9 µg/mL); in experiment [10], 64 µM (≈ 22.9 µg/mL); in [11], 32 µM (≈ 11.5 µg/mL); in experiment [12], 64 µM (≈ 22.9 µg/mL). Besides, the minimal inhibitory concentration (MIC) in experiment [13] and in experiment [14] was 64 µM (≈ 22.9 µg/mL) in each case.
As for `C/C(=N\NC(=O)c1ccncc1)C(=O)Nc1ccc(S(=O)(=O)Nc2cc(C)on2)cc1`, the minimal inhibitory concentration (MIC) in experiment [1], in [3], in experiment [4], in experiment [9], in experiment [11] and in experiment [14] was no less than 250 µM in each case.
